In the supplement of paper PMC10307832:

Key:
Experiment in all cases: relative viability (nuclei count vs DMSO), 5 days (fraction); higher = more cells survive
Dabrafenib + Luminespib = compound: CC(C)(C)c1nc(-c2cccc(NS(=O)(=O)c3c(F)cccc3F)c2F)c(-c2ccnc(N)n2)s1 [Dabrafenib] + CCNC(=O)c1noc(-c2cc(C(C)C)c(O)cc2O)c1-c1ccc(CN2CCOCC2)cc1 [Luminespib] (partner 0.01 µM)
Procedure, shortened: (§1)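 Relative viability divides the nuclei count in treated wells by that in vehicle wells. Lung cancer cell lines were seeded in 1536-well plates, dosed by pin tool the next day, and fixed and stained after 5 days in one step with final 0.05% Triton X-100, 1% formaldehyde and 1 ug/ml Hoechst. Dosing was a single drug or a fixed anchor-drug dose plus five library-drug doses (not always all listed) in √10 steps, and values are medians of duplicate plates imaged at 4×.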

Dabrafenib + OSI-027 = compound: CC(C)(C)c1nc(-c2cccc(NS(=O)(=O)c3c(F)cccc3F)c2F)c(-c2ccnc(N)n2)s1 [Dabrafenib] + COc1cccc2cc(-c3nc([C@H]4CC[C@H](C(=O)O)CC4)n4ncnc(N)c34)[nH]c12 [OSI-027] (partner 0.5 µM)
Procedure, shortened: as §1

Dabrafenib + Tozasertib = compound: CC(C)(C)c1nc(-c2cccc(NS(=O)(=O)c3c(F)cccc3F)c2F)c(-c2ccnc(N)n2)s1 [Dabrafenib] + Cc1cc(Nc2cc(N3CCN(C)CC3)nc(Sc3ccc(NC(=O)C4CC4)cc3)n2)n[nH]1 [Tozasertib] (partner 0.1 µM)
Procedure, shortened: as §1

Dabrafenib + Olaparib = compound: CC(C)(C)c1nc(-c2cccc(NS(=O)(=O)c3c(F)cccc3F)c2F)c(-c2ccnc(N)n2)s1 [Dabrafenib] + O=C(c1cc(Cc2n[nH]c(=O)c3ccccc23)ccc1F)N1CCN(C(=O)C2CC2)CC1 [Olaparib] (partner 8 µM)
Procedure, shortened: as §1

VX-702 + Tozasertib = compound: NC(=O)c1ccc(N(C(N)=O)c2c(F)cccc2F)nc1-c1ccc(F)cc1F [VX-702] + Cc1cc(Nc2cc(N3CCN(C)CC3)nc(Sc3ccc(NC(=O)C4CC4)cc3)n2)n[nH]1 [Tozasertib] (partner 0.1 µM)
Procedure, shortened: as §1

VX-702 + Pemetrexed = compound: NC(=O)c1ccc(N(C(N)=O)c2c(F)cccc2F)nc1-c1ccc(F)cc1F [VX-702] + Nc1nc2[nH]cc(CCc3ccc(C(=O)N[C@@H](CCC(=O)O)C(=O)O)cc3)c2c(=O)[nH]1 [Pemetrexed] (partner 0.2 µM)
Procedure, shortened: as §1

SW 900
relative viability (Dabrafenib + Luminespib; first compound 0.009487 µM): 0.186 | relative viability (Dabrafenib + Luminespib; first compound 0.03 µM): 0.166 | relative viability (Dabrafenib + Luminespib; first compound 0.3 µM): 0.214 | relative viability (Dabrafenib + OSI-027; first compound 0.009487 µM): 0.619 | relative viability (Dabrafenib + OSI-027; first compound 0.03 µM): 0.466 | relative viability (Dabrafenib + OSI-027; first compound 0.3 µM): 0.679 | relative viability (Dabrafenib + Tozasertib; first compound 0.009487 µM): 0.711 | relative viability (Dabrafenib + Tozasertib; first compound 0.03 µM): 0.527 | relative viability (Dabrafenib + Tozasertib; first compound 0.3 µM): 0.632 | relative viability (Dabrafenib + Olaparib; first compound 0.009487 µM): 0.93 | relative viability (Dabrafenib + Olaparib; first compound 0.09487 µM): 0.775 | relative viability (Dabrafenib + Olaparib; first compound 0.3 µM): 0.984 | relative viability (VX-702 + Tozasertib; first compound 0.02 µM): 0.87 | relative viability (VX-702 + Tozasertib; first compound 0.2 µM): 0.494 | relative viability (VX-702 + Tozasertib; first compound 0.6325 µM): 0.621 | relative viability (VX-702 + Tozasertib; first compound 2 µM): 0.636 | relative viability (VX-702 + Pemetrexed; first compound 0.02 µM): 0.51 | relative viability (VX-702 + Pemetrexed; first compound 0.2 µM): 0.488 | relative viability (VX-702 + Pemetrexed; first compound 0.6325 µM): 0.474 | relative viability (VX-702 + Pemetrexed; first compound 2 µM): 0.464
